Measured values: ChEMBL document CHEMBL1151008, “Synthesis and evaluation of 4-5-dehydro-5-fluoroaristeromycins as S-adenosyl-L-homocysteine (AdoHcy) hydrolase inhibitors” (Bioorg Med Chem Lett, 1992)

Experiments:
[1] = molecular target: T1, Adenosylhomocysteinase (Rattus norvegicus) (UniProt P10760)
T1 sequence (whole entry): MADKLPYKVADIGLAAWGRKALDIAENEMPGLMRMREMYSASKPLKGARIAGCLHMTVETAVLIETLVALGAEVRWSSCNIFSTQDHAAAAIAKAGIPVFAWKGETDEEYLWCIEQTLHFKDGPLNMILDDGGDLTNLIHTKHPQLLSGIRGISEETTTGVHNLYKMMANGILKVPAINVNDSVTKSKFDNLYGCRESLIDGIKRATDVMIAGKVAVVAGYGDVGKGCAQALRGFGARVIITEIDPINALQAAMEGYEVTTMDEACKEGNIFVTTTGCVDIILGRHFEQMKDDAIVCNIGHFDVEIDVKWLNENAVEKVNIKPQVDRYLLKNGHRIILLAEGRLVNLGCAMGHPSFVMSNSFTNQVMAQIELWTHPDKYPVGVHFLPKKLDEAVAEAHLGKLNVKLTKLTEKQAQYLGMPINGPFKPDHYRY
Description: (§1) Rate constant was evaluated against S-adenosyl-homocysteine hydrolase

Adenosylhomocysteinase = molecular target: T2, Adenosylhomocysteinase (Rattus norvegicus, UniProt P10760); experiment: Compound was tested for its inhibitory activity against recombinant rat liver S-adenosyl-homocysteine hydrolase
T2 sequence (P10760 whole entry): T1 sequence (whole entry)

[2] = molecular target: T1, Adenosylhomocysteinase (Rattus norvegicus); remark: listed apart in the source
Description: as §1

Row | k2 [1] | Ki (Adenosylhomocysteinase) | k2 [2] | Compound
1 | 0.031 min⁻¹ | 0.112 µM | – | Nc1ncnc2c1ncn2[C@@H]1C/C(=C/F)[C@@H](O)[C@H]1O
2 | – | 0.039 µM | 0.082 min⁻¹ | Nc1ncnc2c1ncn2[C@@H]1O/C(=C\F)[C@@H](O)[C@H]1O
3 | – | 0.04 µM | 0.05 min⁻¹ | Nc1ncnc2c1ncn2[C@@H]1O/C(=C/F)[C@@H](O)[C@H]1O
4 | – | 0.087 µM | 0.05 min⁻¹ | Nc1ncnc2c1ncn2[C@@H]1C/C(=C\F)[C@@H](O)[C@H]1O
